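All cell lines were grown in 96-well plates and treated with compound for 48 hours. GI50 = concentration required for 50% inhibition of growth. TGI is the concentration that stops growth completely.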
Columns and labels:
Experiment in all cases: DTP human tumour cell line panel, 48 h
[1] = system: HT29 colon
[2] = system: SK-MEL-28 melanoma
[3] = system: TK-10 renal
[4] = system: OVCAR-3 ovarian
[5] = system: MALME-3M melanoma
[6] = system: SK-MEL-5 melanoma
[7] = system: CCRF-CEM leukemia
[8] = system: HL-60(TB) leukemia
[9] = system: OVCAR-8 ovarian
[10] = system: NCI-H23 lung

SMILES | TGI [1] [µM] | TGI [2] [µM] | TGI [3] [µM] | TGI [4] [µM] | TGI [5] [µM] | TGI [6] [µM] | TGI [7] [µM] | TGI [8] [µM] | TGI [9] [µM] | TGI [10] [µM] | GI50 [7] [µM] | GI50 [8] [nM] | GI50 [1] [µM] | GI50 [2] [µM] | GI50 [3] [µM] | GI50 [4] [µM] | GI50 [5] [µM] | GI50 [6] [µM] | GI50 [9] [µM] | GI50 [10] [µM]
CC(=O)c1ccc2c(c1)N(CCCN1CCN(CCO)CC1)c1ccccc1C2 | 22.4 | 23.8 | 29.1 | 29.5 | 33 | 25.6 | 28.2 | 29.2 | 30.7 | 30.1 | – | – | – | – | – | – | – | – | – | –
O=C(O)C(O)C(O)C(O)C(=O)CO (centres undefined) | > 100 | > 100 | > 100 | > 100 | > 100 | > 100 | > 100 | > 100 | > 100 | > 100 | – | – | – | – | – | – | – | – | – | –
CCOC(=O)C(=O)NCCCN1CCOCC1 | > 100 | > 100 | > 100 | > 100 | > 100 | > 100 | > 100 | > 100 | > 100 | > 100 | – | – | – | – | – | – | – | – | – | –
C1=CC(=[N+]2N=C(c3ccccc3)CC2c2ccccc2)C=CC1=C1SC(c2ccccc2)(c2ccccc2)c2ccccc21 (centres undefined) | > 100 | > 100 | > 100 | > 100 | > 100 | > 100 | > 100 | > 100 | > 100 | > 100 | – | – | – | – | – | – | – | – | – | –
CCCCCOC(=O)c1cc2cc(CCl)ccc2oc1=O | 35.4 | 60.2 | 5.3 | 19.5 | 8.33 | 13.4 | > 81.1 | 7.19 | > 63 | 17.2 | – | – | – | – | – | – | – | – | – | –
Nc1cc(-c2ccc(Cl)cc2)nn1-c1nc2ccccc2nc1-c1ccccc1 | > 100 | > 100 | > 100 | > 100 | > 100 | > 100 | > 100 | > 100 | > 100 | – | – | – | – | – | – | – | – | – | – | –
CCCSc1ccc2[nH]c(N3C(=O)/C(=C/c4cc(OC)c(OC)c(OC)c4)N=C3c3ccccc3)cc2c1 | > 37.5 | > 37.5 | > 37.5 | 26.5 | > 37.5 | 19 | > 32.9 | 17.3 | > 37.5 | > 37.5 | – | – | – | – | – | – | – | – | – | –
COC(CN(C=O)[C@@H](c1ccc(Cl)cc1)c1cc2ccccc2o1)OC | 36.3 | 34.5 | 33.4 | 26.8 | 11.5 | 28.9 | 44 | 46.3 | 31.3 | 39.2 | – | – | – | – | – | – | – | – | – | –
O=C1/C(=C\c2ccc(F)cc2)CCOc2c1ccc1ccccc21 | > 56.8 | > 71.1 | 60.7 | 27.9 | 37.7 | 47.9 | 35.9 | > 72.4 | 35.2 | 39.4 | – | – | – | – | – | – | – | – | – | –
O=c1c2ccccc2[nH]c(=S)n1-c1ccc(N=Nc2cccc3cc(O)ccc23)cc1 | > 100 | > 100 | > 100 | > 100 | > 100 | > 100 | > 100 | > 100 | > 100 | > 100 | – | – | – | – | – | – | – | – | – | –
COC(=O)C[C@H](COCc1ccccc1)NC(=O)C[C@H](COCc1ccccc1)NC(=O)OC(C)(C)C | > 100 | > 100 | – | 86.9 | > 100 | > 100 | > 100 | > 100 | 61.7 | > 100 | – | – | – | – | – | – | – | – | – | –
O=C1c2ccccc2C(C2c3ccccc3C(=O)c3cc(Br)ccc32)c2ccc(Br)cc21 (centres undefined) | > 100 | > 100 | > 100 | > 100 | > 100 | > 100 | – | – | > 100 | > 100 | – | – | – | – | – | – | – | – | – | –
Nc1ccc(Oc2ccc(C34CC5CC(C3)CC(c3ccc(Oc6ccc(N)cc6)cc3)(C5)C4)cc2)cc1 | > 55 | > 72.1 | > 39.4 | > 32.3 | 28.7 | 26.2 | > 100 | > 66.9 | 23.6 | 37.4 | – | – | – | – | – | – | – | – | – | –
O=C1CC2(CCC(O)(c3cccs3)C(C(=O)c3cccs3)C2)C(=O)c2ccccc2N1 (centres undefined) | > 100 | – | > 100 | > 100 | > 100 | > 100 | > 100 | > 100 | > 100 | > 100 | – | – | – | – | – | – | – | – | – | –
CC(C)(C)[Si](C)(C)OCC1OC(n2cnc3c(N)ncnc32)CC1OS(C)(=O)=O (centres undefined) | > 100 | > 100 | > 100 | > 100 | > 100 | – | > 100 | > 100 | > 100 | > 100 | – | – | – | – | – | – | – | – | – | –
C/C(N=Nc1nc2ccccc2[nH]1)=C1/C=CC=CN1O | > 100 | > 100 | > 100 | > 100 | > 100 | > 100 | > 100 | – | > 100 | > 100 | – | – | – | – | – | – | – | – | – | –

SMILES | TGI [1] [µM] | TGI [2] [µM] | TGI [3] [µM] | TGI [4] [µM] | TGI [5] [µM] | TGI [6] [µM] | TGI [7] [µM] | TGI [8] [µM] | TGI [9] [µM] | TGI [10] [µM] | GI50 [7] [µM] | GI50 [8] [nM] | GI50 [1] [µM] | GI50 [2] [µM] | GI50 [3] [µM] | GI50 [4] [µM] | GI50 [5] [µM] | GI50 [6] [µM] | GI50 [9] [µM] | GI50 [10] [µM]
COc1ccc(C2c3cc4c(cc3OC(O)(CO)C2C(=O)O)OCO4)cc1 (centres undefined) (tested in a mixture with another compound) | 52.4 | 43.8 | > 100 | 54.4 | 75.9 | 39.5 | 55.5 | 41.7 | 48.5 | 50.8 | – | – | – | – | – | – | – | – | – | –
CC(C)C1OC(=O)/C=C/C=C/C=C/C=C/C=C/CC(O)C(C)C(O)CC(O)CC(O)CC(O)CC(O)CC(O)CC(O)/C=C/C1C (centres undefined) | > 100 | > 100 | > 100 | > 100 | > 100 | – | > 100 | – | > 100 | > 100 | 5.11 | 2130 | – | – | – | – | – | – | – | –
CSCCC(NC(=O)OCc1ccccc1)P(=O)(O)c1ccccc1 (centres undefined) | > 100 | > 100 | > 100 | > 100 | – | > 100 | > 100 | > 100 | > 100 | > 100 | – | – | – | – | – | – | – | – | – | –
O=S(=O)(O)c1cc(N=[N+]([O-])c2cc(S(=O)(=O)O)c3ccccc3c2)cc2ccccc12 | > 100 | > 100 | > 100 | 28.2 | > 100 | 32.8 | > 100 | > 100 | > 100 | 77 | – | – | – | – | – | – | – | – | – | –
Nc1ccc(-c2nc3cc(F)ccc3s2)cc1CO | > 100 | > 100 | – | > 100 | > 100 | > 100 | > 100 | > 100 | > 100 | 42.1 | – | – | – | – | – | – | – | – | – | –
CC(=O)Oc1ccc(CO)cc1OC(C)=O | > 100 | > 100 | > 100 | > 100 | > 100 | > 100 | 76.1 | 75.2 | > 100 | – | – | – | – | – | – | – | – | – | – | –
COc1ccc(C(=O)N(C(=O)N2CCN(c3ccccc3)CC2)S(=O)(=O)c2ccccc2)cc1 | > 100 | > 100 | > 100 | > 100 | 93.4 | 28 | > 100 | 48.9 | 53.5 | 73.2 | – | – | – | – | – | – | – | – | – | –
COC(OC)C1OC(CO)C(n2cc(F)c(=O)[nH]c2=O)C1O (centres undefined) | > 100 | > 100 | > 100 | > 100 | – | – | > 100 | > 100 | > 100 | > 100 | – | – | – | – | – | – | – | – | – | –
Cc1cnoc1NS(=O)(=O)c1ccc(Nc2nnc(/C=C/c3c(O)ccc4ccccc34)c(=O)n2N)cc1 | > 100 | – | – | 60.1 | 65.5 | – | > 100 | 22.4 | > 100 | 32 | – | – | – | – | – | – | – | – | – | –
COC1CC(CC2CCC(C)C(C(C)C(=O)O)O2)OC2(OC(C)(C3CCC(C)(C4OC(C5OC(O)(CO)C(C)CC5C)CC4C)O3)CC2C)C1C (centres undefined) | 27.4 | 6.66 | 36.8 | 14 | 0.798 | 1.83 | 17.7 | 1.1 | 41.3 | 8.76 | – | – | – | – | – | – | – | – | – | –
COC(=S)OC1CC(n2cnc3c(N)ncnc32)OC1CO[Si](C)(C)C(C)(C)C (centres undefined) | 30.1 | 96.7 | > 100 | 31 | 66.8 | – | 75.9 | > 100 | 69.5 | 38.7 | – | – | – | – | – | – | – | – | – | –
COc1cc2c(cc1C)NC(=O)/C2=C/c1c(Cl)n(-c2ccccc2)c2ccccc12 | > 100 | > 100 | > 100 | 28 | 37.2 | 22.3 | 30.8 | 22 | > 100 | 81.8 | – | – | – | – | – | – | – | – | – | –
NC(=S)N1N=C(c2ccccc2O)CC1c1ccccc1 (centres undefined) | 28.9 | 58.5 | 78.3 | 31.2 | 42.3 | 23.1 | > 100 | 27.4 | > 100 | 61.3 | – | – | – | – | – | – | – | – | – | –
CCCN1C(=O)CSC1=Nc1ccc2cc3ccc(N=C4SCC(=O)N4CCC)cc3nc2c1 | > 100 | > 100 | 90.6 | 67.6 | 81.7 | > 100 | > 100 | > 100 | > 100 | > 100 | > 100 | > 100000 | 90.6 | > 100 | 32.1 | 22 | 17.5 | 49 | 50.7 | 71.1
COc1cc2c(cc1OCCCCCCCCN1C(=O)c3cccc4cccc(c34)C1=O)N=C[C@@H]1CCCN1C2=O | 36.2 | 37.9 | > 100 | 55.9 | 49.2 | 25.4 | 7.28 | 52.3 | 57.8 | 36.3 | – | – | – | – | – | – | – | – | – | –
N#Cc1c(N)nc2c(c1-c1ccc(Br)cc1)CSc1ccccc1-2 | > 100 | > 100 | > 100 | > 100 | > 100 | > 100 | 92 | 98.5 | > 100 | > 100 | – | – | – | – | – | – | – | – | – | –
